Experimental data reported in the NIST ThermoML archive (doi:10.1016/j.jct.2012.03.003).

Assay: xn = mol fraction of the nth substance listed
Conditions: Liquid, Vibrating tube method

COc1cc2c(cc1O)CC1c3c(cc(O)c(OC)c3-2)CCN1C (stereo not given) [boldine] + CCO
Conditions | mass density [kg/m3]
352.81 K, 16000 kPa, x1 = 0.0012 | 755.72
352.81 K, 16000 kPa, x1 = 0.0136 | 781.95
352.81 K, 17000 kPa, x1 = 0.0012 | 756.73
352.81 K, 17000 kPa, x1 = 0.0136 | 782.94
352.81 K, 18000 kPa, x1 = 0.0012 | 757.73
352.81 K, 18000 kPa, x1 = 0.0136 | 783.9
352.81 K, 19000 kPa, x1 = 0.0012 | 758.72
352.81 K, 19000 kPa, x1 = 0.0136 | 784.85
352.81 K, 20000 kPa, x1 = 0.0012 | 759.69
352.81 K, 20000 kPa, x1 = 0.0136 | 785.8
352.82 K, 1000 kPa, x1 = 0.0267 | 792.92
352.82 K, 2000 kPa, x1 = 0.0267 | 794.02
352.82 K, 3000 kPa, x1 = 0.0267 | 795.11
352.82 K, 4000 kPa, x1 = 0.0267 | 796.19
352.82 K, 5000 kPa, x1 = 0.0267 | 797.27
352.82 K, 6000 kPa, x1 = 0.0267 | 798.34
352.82 K, 7000 kPa, x1 = 0.0267 | 799.39
352.82 K, 8000 kPa, x1 = 0.0267 | 800.44
352.82 K, 9000 kPa, x1 = 0.0267 | 801.49
352.82 K, 10000 kPa, x1 = 0.0267 | 802.51
352.82 K, 11000 kPa, x1 = 0.0267 | 803.53
352.82 K, 12000 kPa, x1 = 0.0267 | 804.54
352.82 K, 13000 kPa, x1 = 0.0267 | 805.54
352.82 K, 14000 kPa, x1 = 0.0267 | 806.51
352.82 K, 15000 kPa, x1 = 0.0267 | 807.49
352.82 K, 16000 kPa, x1 = 0.0267 | 808.44
352.82 K, 17000 kPa, x1 = 0.0267 | 809.38
352.82 K, 18000 kPa, x1 = 0.0267 | 810.32
352.82 K, 19000 kPa, x1 = 0.0267 | 811.24
352.82 K, 20000 kPa, x1 = 0.0267 | 812.14
352.88 K, 1000 kPa, x1 = 0.0074 | 751.94
352.88 K, 2000 kPa, x1 = 0.0074 | 753.18
352.88 K, 3000 kPa, x1 = 0.0074 | 754.29
352.88 K, 4000 kPa, x1 = 0.0074 | 755.45
352.88 K, 5000 kPa, x1 = 0.0074 | 756.6
352.88 K, 6000 kPa, x1 = 0.0074 | 757.75
352.88 K, 7000 kPa, x1 = 0.0074 | 758.88
352.88 K, 8000 kPa, x1 = 0.0074 | 760.01
352.88 K, 9000 kPa, x1 = 0.0074 | 761.12
352.88 K, 10000 kPa, x1 = 0.0074 | 762.21
352.88 K, 11000 kPa, x1 = 0.0074 | 763.3
352.88 K, 12000 kPa, x1 = 0.0074 | 764.38
352.88 K, 13000 kPa, x1 = 0.0074 | 765.43
352.88 K, 14000 kPa, x1 = 0.0074 | 766.48
352.88 K, 15000 kPa, x1 = 0.0074 | 767.51
352.88 K, 16000 kPa, x1 = 0.0074 | 768.53
352.88 K, 17000 kPa, x1 = 0.0074 | 769.53
352.88 K, 18000 kPa, x1 = 0.0074 | 770.52
352.88 K, 19000 kPa, x1 = 0.0074 | 771.48
352.88 K, 20000 kPa, x1 = 0.0074 | 772.43
362.76 K, 1000 kPa, x1 = 0.0196 | 770.85
362.76 K, 2000 kPa, x1 = 0.0196 | 772.05
362.76 K, 3000 kPa, x1 = 0.0196 | 773.24
362.76 K, 4000 kPa, x1 = 0.0196 | 774.43
362.76 K, 5000 kPa, x1 = 0.0196 | 775.6
362.76 K, 6000 kPa, x1 = 0.0196 | 776.76
362.76 K, 7000 kPa, x1 = 0.0196 | 777.92
362.76 K, 8000 kPa, x1 = 0.0196 | 779.06
362.76 K, 9000 kPa, x1 = 0.0196 | 780.2
362.76 K, 10000 kPa, x1 = 0.0196 | 781.28
362.76 K, 11000 kPa, x1 = 0.0196 | 782.39
362.76 K, 12000 kPa, x1 = 0.0196 | 783.48
362.76 K, 13000 kPa, x1 = 0.0196 | 784.55
362.76 K, 14000 kPa, x1 = 0.0196 | 785.61
362.76 K, 15000 kPa, x1 = 0.0196 | 786.65
362.76 K, 16000 kPa, x1 = 0.0196 | 787.68
362.76 K, 17000 kPa, x1 = 0.0196 | 788.71
362.76 K, 18000 kPa, x1 = 0.0196 | 789.69
362.76 K, 19000 kPa, x1 = 0.0196 | 790.66
362.76 K, 20000 kPa, x1 = 0.0196 | 791.63
362.77 K, 1000 kPa, x1 = 0.0136 | 755.74
362.77 K, 1000 kPa, x1 = 0.0267 | 783.02
362.77 K, 2000 kPa, x1 = 0.0136 | 756.99
362.77 K, 2000 kPa, x1 = 0.0267 | 784.19
362.77 K, 3000 kPa, x1 = 0.0136 | 758.22
362.77 K, 3000 kPa, x1 = 0.0267 | 785.37
362.77 K, 4000 kPa, x1 = 0.0136 | 759.44
362.77 K, 4000 kPa, x1 = 0.0267 | 786.53
362.77 K, 5000 kPa, x1 = 0.0136 | 760.66
362.77 K, 5000 kPa, x1 = 0.0267 | 787.67
362.77 K, 6000 kPa, x1 = 0.0136 | 761.86
362.77 K, 6000 kPa, x1 = 0.0267 | 788.81
362.77 K, 7000 kPa, x1 = 0.0136 | 763.05
362.77 K, 7000 kPa, x1 = 0.0267 | 789.94
362.77 K, 8000 kPa, x1 = 0.0136 | 764.22
362.77 K, 8000 kPa, x1 = 0.0267 | 791.05
362.77 K, 9000 kPa, x1 = 0.0136 | 765.39
362.77 K, 9000 kPa, x1 = 0.0267 | 792.16
362.77 K, 10000 kPa, x1 = 0.0136 | 766.54
362.77 K, 10000 kPa, x1 = 0.0267 | 793.25
362.77 K, 11000 kPa, x1 = 0.0136 | 767.67
362.77 K, 11000 kPa, x1 = 0.0267 | 794.34
362.77 K, 12000 kPa, x1 = 0.0136 | 768.79
362.77 K, 12000 kPa, x1 = 0.0267 | 795.38
362.77 K, 13000 kPa, x1 = 0.0136 | 769.9
362.77 K, 13000 kPa, x1 = 0.0267 | 796.43
362.77 K, 14000 kPa, x1 = 0.0136 | 770.98
362.77 K, 14000 kPa, x1 = 0.0267 | 797.48
362.77 K, 15000 kPa, x1 = 0.0136 | 772.08
362.77 K, 15000 kPa, x1 = 0.0267 | 798.5
362.77 K, 16000 kPa, x1 = 0.0136 | 773.14
362.77 K, 16000 kPa, x1 = 0.0267 | 799.5
362.77 K, 17000 kPa, x1 = 0.0136 | 774.19
362.77 K, 17000 kPa, x1 = 0.0267 | 800.5
362.77 K, 18000 kPa, x1 = 0.0136 | 775.2
362.77 K, 18000 kPa, x1 = 0.0267 | 801.48
362.77 K, 19000 kPa, x1 = 0.0136 | 776.22
362.77 K, 19000 kPa, x1 = 0.0267 | 802.44
362.77 K, 20000 kPa, x1 = 0.0136 | 777.21
362.77 K, 20000 kPa, x1 = 0.0267 | 803.41
362.78 K, 1000 kPa, x1 = 0.0012 | 728.71
362.78 K, 2000 kPa, x1 = 0.0012 | 730.01
362.78 K, 3000 kPa, x1 = 0.0012 | 731.31
362.78 K, 4000 kPa, x1 = 0.0012 | 732.6
362.78 K, 5000 kPa, x1 = 0.0012 | 733.87
362.78 K, 6000 kPa, x1 = 0.0012 | 735.12
362.78 K, 7000 kPa, x1 = 0.0012 | 736.36
362.78 K, 8000 kPa, x1 = 0.0012 | 737.59
362.78 K, 9000 kPa, x1 = 0.0012 | 738.8
362.78 K, 10000 kPa, x1 = 0.0012 | 739.99
362.78 K, 11000 kPa, x1 = 0.0012 | 741.18
362.78 K, 12000 kPa, x1 = 0.0012 | 742.33
362.78 K, 13000 kPa, x1 = 0.0012 | 743.48
362.78 K, 14000 kPa, x1 = 0.0012 | 744.62
362.78 K, 15000 kPa, x1 = 0.0012 | 745.73
362.78 K, 16000 kPa, x1 = 0.0012 | 746.83
362.78 K, 17000 kPa, x1 = 0.0012 | 747.9
362.78 K, 18000 kPa, x1 = 0.0012 | 748.97
362.78 K, 19000 kPa, x1 = 0.0012 | 750.01
362.78 K, 20000 kPa, x1 = 0.0012 | 751.05
362.87 K, 1000 kPa, x1 = 0.0074 | 741.96
362.87 K, 2000 kPa, x1 = 0.0074 | 743.24
362.87 K, 3000 kPa, x1 = 0.0074 | 744.5
362.87 K, 4000 kPa, x1 = 0.0074 | 745.75
362.87 K, 5000 kPa, x1 = 0.0074 | 746.98
362.87 K, 6000 kPa, x1 = 0.0074 | 748.21
362.87 K, 7000 kPa, x1 = 0.0074 | 749.43
362.87 K, 8000 kPa, x1 = 0.0074 | 750.63
362.87 K, 9000 kPa, x1 = 0.0074 | 751.81
362.87 K, 10000 kPa, x1 = 0.0074 | 752.98
362.87 K, 11000 kPa, x1 = 0.0074 | 754.12
362.87 K, 12000 kPa, x1 = 0.0074 | 755.27
362.87 K, 13000 kPa, x1 = 0.0074 | 756.39
362.87 K, 14000 kPa, x1 = 0.0074 | 757.5
362.87 K, 15000 kPa, x1 = 0.0074 | 758.59
362.87 K, 16000 kPa, x1 = 0.0074 | 759.65
362.87 K, 17000 kPa, x1 = 0.0074 | 760.72
362.87 K, 18000 kPa, x1 = 0.0074 | 761.76
362.87 K, 19000 kPa, x1 = 0.0074 | 762.79
362.87 K, 20000 kPa, x1 = 0.0074 | 763.81
